Read-outs that look alike come from different tables or passages of the source.
What was measured:
[1] = system: CT DNA (calf-thymus DNA); experiment: Thermal denaturation study of CT DNA; assay type: binding; conditions: for ΔTm of CT DNA: incubation 12 h at 37 °C, PE buffer pH 7.4, complex/DNA ratio 1:1, CT DNA alone melts at 59.3 °C
Description: The DNA binding affinity of the synthesized complexes was evaluated through thermal denaturation studies with duplex CT DNA using a modified reported procedure. […]

[2] = system: CT DNA; experiment: UV-visible spectroscopic titrations with CT DNA; assay type: binding, calf; conditions: 25 µM complex, KBPES buffer pH 7.0, 25 °C
Source text: The mode of the DNA-complex interaction was further studied by UV-visible experiments. The results from these studies will indicate the mode of DNA-complex interaction. The UV-visible spectra of metalla-rectangles 4, 6 and 8, the iridium derivatives, show a prominent absorption band at 210 nm. […] The hyperchromicity of the Soret band of the metalla-rectangles was more evident at 210 nm. A continuous hyperchromicity of the Soret band upon addition of metalla-rectangles 4, 6 and 8 to a CT DNA solution is an indication of electrostatic binding or partial unwinding of the CT DNA [27].
UV-Visible spectroscopic titrations were performed using an ABI Lambda 40 UV/Vis spectrophotometer (Foster City, CA, USA) at 25 °C using 1 cm path length quartz cuvettes. Stock solutions of complex (25 µM) was prepared in DMSO and CT DNA (25 µM) were prepared in KBPES buffer (30 mM Potassium Phosphate with 100 mM KCl, pH 7.0). The quartz cells were thoroughly cleaned with distilled water and followed by nitric acid (~0.1 N) after each experiment. UV-visible absorption titrations were done by adding CT DNA stock solution (25 µM) in KBPES buffer (30 mM Potassium Phosphate with 100 mM KCl, pH 7.0) to the quartz cuvette containing approximately 25 µM complex solutions. Preparation of CT DNA and complex solutions was done on the same day as the experiment. Titrations were performed until the band remained at a fixed wavelength upon successive additions of CT DNA.

[3] = system: HeLa cells (cervical cancer); experiment: MTT assay, HeLa; assay type: cell-based, human; conditions: 48 h, averaged over three experiments, read-out: Half maximum inhibitory concentration (IC50), HeLa
Description: (§1) To understand the effect of these complexes on the proliferation of cancerous and noncancerous cells, MTT assays were carried out following the protocol reported by Wilson et al.. The noncancerous (HEK-293) and the human cancerous cell lines (DU-145, A-549 and HeLa) were grown according to the supplier’s recommendations. All cell lines were treated for 48 h at different concentrations of complexes (0.25 µM, 0.5 µM, 0.75 µM, 1 µM, 5 µM, 10 µM, 25 µM, 50 µM and 100 µM). After treatment, the number of viable cells was estimated using a MTT assay. […] Cells treated with doxorubicin in the same concentration range were considered as controls.
(§2) The anticancer activity of the complex was determined using the 3-(4,5-dimethylthiazol-2-yl)-2,5-diphenyltetrazolium bromide (MTT) assay. First 1 × 10^4 cells per well were seeded in Dulbecco’s modified Eagle’s medium (DMEM, 100 µL) supplemented with 10% fetal bovine serum in each well of 96-well microculture plates and incubated for 24 h at 37 °C in a CO2 incubator. Complexes were diluted to the desired concentrations in culture medium and added to the wells with respective vehicle control. After 48 h of incubation, MTT (10 µL, 5 mg mL^−1) was added to each well and the plates were further incubated for 4 h. Then the supernatant from each well was carefully removed, formazan crystals were dissolved in DMSO (100 µL) and absorbance at 570 nm was recorded.

[4] = system: A-549 cells; experiment: Apoptosis assay (annexin-V/propidium iodide flow cytometry); assay type: cell-based, human; conditions: A-549, 500 nM, 48 h; for Early apoptotic (%): control 0.84; for Late apoptotic (%): control 6.18; for Necrotic (%): control 14.61; for Living cells (%): control 78.37; for Total apoptotic cells (%): early + late apoptotic, control 7.02
[5] = system: HEK-293 (normal human embryonic kidney cells); experiment: MTT assay, HEK-293; assay type: cell-based; conditions: for IC50: 48 h, MTT, noncancerous cells, averaged over three experiments, read-out: Half maximum inhibitory concentration (IC50), HEK-293; for Selectivity for cancerous over noncancerous cells (HEK-293): IC50 on HEK-293 compared with cancer cell lines
Description: as §1, §2

[6] = system: A-549 cells; experiment: Mitochondrial outer membrane permeability assay (MitoTracker Red, confocal microscopy); assay type: cell-based, human; conditions: A-549, 500 nM
Description: The aggregation of mitochondria was reported to occur when cells enter into apoptosis, and accordingly led to the release of cytochrome c into the cytosol, which in turn triggered the cascade pathway to apoptosis. From Figure 6, it was clear that mitochondria were getting bundled with metalla-rectangle 3, indicating the onset of apoptosis in A-549 cells.
Compound [3](CF3SO3)4 (500 nM) with treated and untreated A-549 cells were incubated in a medium containing MitoTracker Red™ (50 nM) for 30 min at culture conditions recommended by the supplier. Cells were washed and fixed with 4% paraformaldehyde for 15 min, and permeabilized with Triton X-100 (0.1%) for each 10 min. The cover glasses after PBS wash were mounted on to the glass slides, sealed with nail polish and observed using laser scanning confocal microscopy (Leica TCS SP5, Heidelberg, Germany). The MitoTracker Red™ was excited using 543 nm laser source and the fluorescence emission signals were collected at 570 nm to 635 nm.

[7] = system: CT DNA; experiment: CD spectroscopic study with CT DNA; assay type: binding, calf; conditions: CT DNA/complex 1:0.5 to 1:1, KBPES buffer pH 7.0, 25 °C
Description: Circular dichroism (CD) studies can provide information on the changes in the DNA conformation upon interactions with small molecules. These changes in the DNA topology are giving useful information on the nature of the DNA-complex interactions. […] These bands are characteristic to the profile of the B form of DNA [24].
Circular dichroism (CD) experiments were performed using a Jasco 815 CD spectropolarimeter (Jasco, Tokyo, Japan). CD spectra were recorded from 230 to 300 nm to find the conformational changes in the CT DNA after interaction with the complexes. For each CD experiment, CT DNA (15 × 10^‒6 M) was used initially. Further, for the characterization of complex‒DNA interaction, the CD spectra were recorded in 1:0.5 and 1:1 CT DNA/complex molar ratios. CD titrations were performed in KBPES buffer (30 mM Potassium Phosphate with 100 mM KCl, pH 7.0) at 25 °C. Each spectrum was recorded three times and the average of three scans was taken.

[8] = system: A-549 cells (lung cancer); experiment: MTT assay, A-549; assay type: cell-based, human
Description: as §1, §2

[9] = system: DU-145 cells (prostate cancer); experiment: MTT assay, DU-145; assay type: cell-based, human; conditions: averaged over three experiments, read-out: Half maximum inhibitory concentration (IC50), DU-145
Description: as §1, §2

[10] = system: A-549 cells; experiment: Cell cycle assay by flow cytometry (propidium iodide); assay type: cell-based, human; conditions: A-549, 500 nM, 24 h; for Sub G1 (%): control 1.37; for G2/M (%): control 16.37; for S (%): control 17.15; for G0/G1 (%): control 54.62
Description: In order to corroborate the results obtained in the MTT assays and to better understand the action of metalla-rectangles 3 and 8 on cells, the effects on the cell cycle inhibition and the interference in cell proliferations using a standard cell cycle assay were studied. The results obtained are presented in (Table 2). On analyzing the results, it was evident that the cell cycle was inhibited at the subG1 phase with both metalla-rectangles.
Flow cytometric analysis (FACS) was performed to evaluate the distribution of the cells in different cell cycle phases. A-549 cells were incubated with metalla-rectangles 3 and 8 at 500 nM concentration for 24 h. Untreated cells were considered as control sample. Untreated and treated cells were harvested, washed with PBS, fixed in ice cold 70% ethanol and stained with propidium iodide (Sigma Aldrich, St. Louis, MO, USA). Cell cycle was performed by using Becton Dickinson FACS Caliber (Franklin Lakes, NJ, USA).

[11] = 48 h, averaged over three experiments, read-out: Half maximum inhibitory concentration (IC50), A-549
[12] = 48 h, read-out: IC50 in A-549 cells

| Compound | ΔTm of CT DNA [1] | Change of the absorption (Soret) band at 210 nm on addition of CT DNA [2] | IC50 [3] | IC50 [5] | IC50 [8, 11] | IC50 ([9]; 48 h) | also measured |
| --- | --- | --- | --- | --- | --- | --- | --- |
| [(η^5-C5Me5)4Rh4(μ2-pyrazine-ĸN)2(μ4-C6HRO4-ĸO)2](CF3SO3)4 [[3](CF3SO3)4] | 12.9 °C | same hyperchromicity | 0.52 ± 0.2 µM | 62 ± 0.5 µM | 0.5 ± 0.1 µM | 0.54 ± 0.2 µM | Melting temperature of CT DNA in the presence of the compound ([1]; CT DNA alone 59.3 °C): 72.2 °C; IC50 ([3]; listed as [3]^4+): 0.5 µM; Early apoptotic (%) [4]: 4.73%; Late apoptotic (%) [4]: 23.30%; Necrotic (%) [4]: 11.57%; Living cells (%) [4]: 60.40%; Total apoptotic cells (%) [4]: 28.03%; Total apoptotic cells (%) ([4]; listed as 3): about 28.03%; Selectivity for cancerous over noncancerous cells (HEK-293) [5]: two orders of magnitude; Effect on mitochondria distribution (MitoTracker Red) [6]: aggregations of mitochondria were observed; Change of the positive CD band of CT DNA (275 nm) [7]: slight hyperchromicity; IC50 [8, 12]: ~0.5 µM; IC50 ([9]; 48 h, listed as [3]^4+): 0.5 µM; Sub G1 (%) [10]: 31.97%; G2/M (%) [10]: 1.35%; S (%) [10]: 2.87%; G0/G1 (%) [10]: 56.29% |
| [(η^5-C5Me5)4Rh4(μ2-1,2-bis(4-pyridyl)ethylene-ĸN)2(μ4-C6HRO4-ĸO)2](CF3SO3)4 [[7](CF3SO3)4] | 8.2 °C | same hyperchromicity | 5.75 ± 0.2 µM | 62.1 ± 0.3 µM | 2.01 ± 0.2 µM | 4.98 ± 0.3 µM | – |
| [(η^5-C5Me5)4Ir4(μ2-1,2-bis(4-pyridyl)ethylene-ĸN)2(μ4-C6HRO4-ĸO)2](CF3SO3)4 [[8](CF3SO3)4] | 12.7 °C | continuous increase of its intensity | 0.59 ± 0.2 µM | 70.8 ± 0.4 µM | 0.67 ± 0.4 µM | 0.72 ± 0.2 µM | Early apoptotic (%) [4]: 1.58%; Late apoptotic (%) [4]: 13.04%; Necrotic (%) [4]: 22.92%; Living cells (%) [4]: 62.46%; Total apoptotic cells (%) [4]: 14.62%; Selectivity for cancerous over noncancerous cells (HEK-293) [5]: two orders of magnitude; Change of the positive CD band of CT DNA (275 nm) [7]: higher hyperchromicity; IC50 [8, 12]: ~0.67 µM; Sub G1 (%) [10]: 11.98%; G2/M (%) [10]: 3.49%; S (%) [10]: 7.95%; G0/G1 (%) [10]: 66.54% |
| [(η^5-C5Me5)4Ir4(μ2-pyrazine-ĸN)2(μ4-C6HRO4-ĸO)2](CF3SO3)4 [[4](CF3SO3)4] | 6.8 °C | continuous increase of its intensity | 4.16 ± 0.3 µM | 31.2 ± 0.5 µM | 3.18 ± 0.2 µM | 16 ± 0.4 µM | – |
| [(η^5-C5Me5)4Rh4(μ2-4,4'-bipyridine-ĸN)2(μ4-C6HRO4-ĸO)2](CF3SO3)4 [[5](CF3SO3)4] | 7.3 °C | same hyperchromicity | 1.01 ± 0.3 µM | 41.3 ± 0.4 µM | 0.67 ± 0.1 µM | 4.67 ± 0.2 µM | – |
| [(η^5-C5Me5)4Ir4(μ2-4,4'-bipyridine-ĸN)2(μ4-C6HRO4-ĸO)2](CF3SO3)4 [[6](CF3SO3)4] | 7.9 °C | continuous increase of its intensity | 1.04 ± 0.3 µM | 40.3 ± 0.4 µM | 0.84 ± 0.1 µM | 2.53 ± 0.2 µM | – |
| COc1cccc2c1C(=O)c1c(O)c3c(c(O)c1C2=O)C[C@@](O)(C(=O)CO)C[C@@H]3O[C@H]1C[C@H](N)[C@H](O)[C@H](C)O1 [doxorubicin, reference compound] | 9.5 °C | – | – | – | – | – | IC50 ([3]; Homo sapiens, HeLa): 0.91 ± 0.2 µM; IC50 ([8]; Homo sapiens, A549, 48 h, averaged over three experiments, read-out: Half maximum inhibitory concentration (IC50), A-549): 0.85 ± 0.1 µM; IC50 ([9]; Homo sapiens, DU-145, 48 h): 1.28 ± 0.2 µM |

Reference: article PMC6271910, “Exploiting Natural Products to Build Metalla-Assemblies: The Anticancer Activity of Embelin-Derived Rh(III) and Ir(III) Metalla-Rectangles” (Molecules, 2014)
